In ChEMBL document CHEMBL2016467, “Thiosemicarbazone fragment embedded within 1,2,4-triazole ring as inhibitors of Entamoeba histolytica” (Bioorg Med Chem Lett, 2012) one finds IC50, viability and Activity data, which are given here for 16 compounds.

The test system of one series is Entamoeba histolytica. In words: Antiamoebic activity against Entamoeba histolytica HM-1:IMSS trophozoites after 72 hrs by microdilution method. Type of series: functional, organism-based.
Series [1] in a line: Cytotoxicity against human MCF7 cells assessed as cell viability at 2.5 to 100 uM after 48 hrs by MTT assay. Type of series: cell-based. Particulars: read-out: Activity. (Tetrazolium dyes change colour on reduction, which living cells bring about.)
Series [2] deals with MCF7. In words: Cytotoxicity against human MCF7 cells assessed as cell viability at 250 uM after 48 hrs by MTT assay. The following applies: mcf7, 48 h. The class given is cell-based.
For series [3], the system named is MCF7. The experiment in a line: Cytotoxicity against human MCF7 cells after 48 hrs by MTT assay. The class given is cell-based. Particulars: MCF7, 48 h.

`COc1cc(/C=N/n2c(S)nnc2-c2ccccc2)cc(OC)c1OC` displayed an IC50 in the series on Entamoeba histolytica of 2700 nM.

In the case of `Nn1c(S)nnc1-c1ccccc1`, the IC50 in the series with Entamoeba histolytica was 10800 nM.

Consider `Cc1ccc(/C=N/n2c(S)nnc2-c2ccccc2)cc1`, for which the viability at 48 h, up to 100 µM in series [1] came out at 65%. Moreover, the Activity entry in the series with MCF7 [2] is reported as “Non-toxic”. The IC50 with MCF7 [3] was over 250000 nM; in the series on Entamoeba histolytica, 1380 nM.

With `COc1ccc(/C=N/n2c(S)nnc2-c2ccccc2)cc1`, the viability at 48 h, up to 100 µM in series [1] worked out at 60%. The Activity entry in the series with MCF7 [2] is recorded as “Non-toxic”. Further, the figures for the IC50 in the series with MCF7 [3] and with Entamoeba histolytica were over 250000 nM and 322 nM, respectively.

Regarding `COc1ccc(OC)c(/C=N/n2c(S)nnc2-c2ccccc2)c1`, the IC50 in the series on Entamoeba histolytica was 8790 nM.

For the compound `O=[N+]([O-])c1ccc(/C=N/n2c(S)nnc2-c2ccccc2)cc1`, in series [1], the viability at 48 h, up to 100 µM worked out at 60%. In the series with MCF7 [2], the Activity entry is listed as “Non-toxic”. For the same compound, the IC50 in the series on MCF7 [3] was over 250000 nM; in the series on Entamoeba histolytica, 280 nM.

On to `CN(C)c1ccc(/C=N/n2c(S)nnc2-c2ccccc2)cc1`, for which the viability at 48 h, up to 100 µM in series [1] is 65%. In addition, the Activity result in the series with MCF7 [2] is given as “Non-toxic”. For the same compound, the IC50 with MCF7 [3] was over 250000 nM; in the series with Entamoeba histolytica, 309 nM.

Regarding `FC(F)(F)c1ccccc1/C=N/n1c(S)nnc1-c1ccccc1`, in the series with Entamoeba histolytica, the IC50 was determined as 4680 nM.

`S=C(N1CCC(Cc2ccccc2)CC1)N1CCC(c2cccc(Cl)c2)=N1`: the IC50 with Entamoeba histolytica amounted to 1000 nM.

Take `Cc1nnc2n(NC(=S)NC34CC5CC(CC(C5)C3)C4)c(C)nnc1-2`: the IC50 in the series on Entamoeba histolytica amounted to 840 nM.

The compound `O=[N+]([O-])c1ccc(/C=N/NC(=S)N2CCCCCCC2)s1` registered an IC50 with Entamoeba histolytica of 1710 nM.

Turning to `COc1cc(/C=N/n2c(-c3ccccc3)n[nH]c2=S)ccc1O`, the IC50 with Entamoeba histolytica came to 3050 nM.

For `Oc1ccc(/C=N/n2c(-c3ccccc3)n[nH]c2=S)cc1`, inhibition in the series with Entamoeba histolytica was half-maximal at 10200 nM (IC50).

`S=c1[nH]nc(-c2ccccc2)n1/N=C/c1ccc(Cl)cc1` showed an IC50 in the series on Entamoeba histolytica of 9550 nM.

In the case of `Cc1ncc([N+](=O)[O-])n1CCO` [METRONIDAZOLE], the viability at 48 h, up to 100 µM in series [1] is over 70%. In addition, the Activity result in the series on MCF7 [2] is “Non-toxic”. In the series with MCF7 [3], the IC50 was over 250000 nM.

Take `NNC(N)=S` [THIOSEMICARBAZIDE]: the IC50 in the series on Entamoeba histolytica was determined as 2290 nM.

For orientation: IC50 means the point on the concentration scale where inhibition reaches its midpoint. A low value points to higher potency.
